Measured values from patent US4044043A, “Derivatives of 9-oxo-13-trans-prostenoic acid esters” (American Cyanamid Company, priority 1975, dated 1977).
Values after ≈ are worked out from the molar mass of the structure shown.

System: dl-PGE1-induced contraction of gerbil colon
Experiment: Inhibition of dl-PGE1-Induced Contraction of Gerbil Colon (prostaglandin antagonist action)
Assay type: cell-based, gerbils (Meriones unguiculatus)
Settings: Meriones unguiculatus, 1 min; 200 ng./ml. dl-PGE1; read-out: ID50 vs. 200 ng. of PGE1/ml.
Method in brief: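 Ascending colon from male gerbils, held in De Jalon's solution at 37 °C under 95% O2/5% CO2 with 0.5 g resting tension, contraction recorded isometrically. 1 min compound exposure, then 1 min dl-PGE1 at 200 ng/ml (maximal) or 20 ng/ml (sub-maximal). Approximate ID50 taken from a concentration series against the preceding agonist-only cycle.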

| IC50 | Compound |
| --- | --- |
| 10 to 15 µg/mL (≈ 35.7 to 53.5 µM) | CCC/C=C/[C@H]1CCC(=O)[C@@H]1CCCCCCC(=O)O (relative stereo) [9-oxo-18,19,20-trinor-13-trans-prostenoic acid] |
| 9 to 10 µg/mL (≈ 27.9 to 31 µM) | CCCCCC/C=C/[C@H]1CCC(=O)[C@@H]1CCCCCCC(=O)O (relative stereo) [9-oxo-13-trans-prostenoic acid] |

Same assay, conditions: Meriones unguiculatus, 1 min; sub-maximal challenge, 20 ng./ml. dl-PGE1; 50% inhibition of maximum response; read-out: ID50 vs. 20 ng. of PGE1/ml.

| Compound | IC50 |
| --- | --- |
| CCCCC/C=C/[C@H]1CCC(=O)[C@@H]1CCCCCCC(=O)O (relative stereo) [9-oxo-20-nor-13-trans-prostenoic acid] | 5 µg/mL (≈ 16.2 µM) |
| CCCCCC/C=C/[C@@H]1CCCC(=O)[C@H]1CCCCCCC(=O)O (relative stereo) [9-oxo-10a-homo-13-trans-prostenoic acid] | 2.5 to 5 µg/mL (≈ 7.43 to 14.9 µM) |
| CCCCCC/C=C/[C@H]1CCC(=O)[C@@H]1CCCCCCC(=O)O (relative stereo) [9-oxo-13-trans-prostenoic acid] | 1.5 to 2 µg/mL (≈ 4.65 to 6.2 µM) |
| CC/C=C\CC/C=C/[C@@H]1CCC(=O)[C@H]1CCCCCCC(=O)O (relative stereo) [9-oxo-13-trans-17-cis-prostadienoic acid] | 2.5 to 5 µg/mL (≈ 7.8 to 15.6 µM) |

The remaining lines, values ahead:

| IC50 | Compound |
| --- | --- |
| 1 to 2.5 µg/mL (≈ 3.18 to 7.94 µM) | O=C(O)CCCCCC[C@@H]1C(=O)CC[C@H]1/C=C/CCCCl (relative stereo) [20-chloro-9-oxo-17,18,19-trinor-13-trans-prostenoic acid] |
| 2 to 2.5 µg/mL (≈ 5.94 to 7.43 µM) | CCCCCCC/C=C/[C@@H]1CCC(=O)[C@H]1CCCCCCC(=O)O (relative stereo) [20-methyl-9-oxo-13-trans-prostenoic acid] |
| 5 to 10 µg/mL (≈ 14 to 28 µM) | O=C(O)CCCCCC[C@H]1C(=O)CC[C@@H]1/C=C/CCCCCCCl (relative stereo) [20-chloro-9-oxo-13-trans-prostenoic acid] |
| 0.25 to 0.5 µg/mL (≈ 0.81 to 1.62 µM) | CC(C)CC/C=C/[C@@H]1CCC(=O)[C@H]1CCCCCCC(=O)O (relative stereo) [17-methyl-9-oxo-19,20-dinor-13-trans-prostenoic acid] |

System: gastric acid secretion
Experiment: Inhibition of Gastric Acid Secretion (Pylorous-Ligated Rat), Shay rat procedure
Assay type: in vivo, rats (male, CFE strain)
Settings: 50 mg./kg. intraduodenal, read-out: % Inhibition of Control Gastric Acid Secretion
Method in brief: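 Male CFE rats were fasted 48 h, then pylorus-ligated under ether. Gastric contents were titrated with 0.02N or 0.04N NaOH to pH 8.4 for acid output, and ≥20% inhibition counted as active.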

| Compound | inhibition in vivo at 50 mg/kg |
| --- | --- |
| CCC/C=C/[C@H]1CCC(=O)[C@@H]1CCCCCCC(=O)O (relative stereo) [9-oxo-18,19,20-trinor-13-trans-prostenoic acid] | 50% |
| CCCCCC/C=C/[C@@H]1CCCC(=O)[C@H]1CCCCCCC(=O)O (relative stereo) [9-oxo-10a-homo-13-trans-prostenoic acid] | 80% |

Same assay, conditions: 100 mg./kg. intraduodenal, read-out: % Inhibition of Control Gastric Acid Secretion

| Compound | inhibition in vivo at 100 mg/kg |
| --- | --- |
| CCC/C=C/[C@H]1CCC(=O)[C@@H]1CCCCCCC(=O)O (relative stereo) [9-oxo-18,19,20-trinor-13-trans-prostenoic acid] | 92% |
| CCCCC/C=C/[C@H]1CCC(=O)[C@@H]1CCCCCCC(=O)O (relative stereo) [9-oxo-20-nor-13-trans-prostenoic acid] | 49% |
| O=C(O)CCCCCC[C@@H]1C(=O)CC[C@H]1/C=C/CCCCl (relative stereo) [20-chloro-9-oxo-17,18,19-trinor-13-trans-prostenoic acid] | 34% |
| CCCCCCC/C=C/[C@@H]1CCC(=O)[C@H]1CCCCCCC(=O)O (relative stereo) [20-methyl-9-oxo-13-trans-prostenoic acid] | 34% |
| O=C(O)CCCCCC[C@H]1C(=O)CC[C@@H]1/C=C/CCCCCCCl (relative stereo) [20-chloro-9-oxo-13-trans-prostenoic acid] | 56% |
| CC(C)CC/C=C/[C@@H]1CCC(=O)[C@H]1CCCCCCC(=O)O (relative stereo) [17-methyl-9-oxo-19,20-dinor-13-trans-prostenoic acid] | 28% |
| CC/C=C\CC/C=C/[C@@H]1CCC(=O)[C@H]1CCCCCCC(=O)O (relative stereo) [9-oxo-13-trans-17-cis-prostadienoic acid] | 21% |

Same assay, conditions: 200 mg./kg. intraduodenal, read-out: % Inhibition of Control Gastric Acid Secretion

| Compound | inhibition in vivo at 200 mg/kg |
| --- | --- |
| CCCCCC/C=C/[C@H]1CCC(=O)[C@@H]1CCCCCCC(=O)O (relative stereo) [9-oxo-13-trans-prostenoic acid] | 69% |

System: bronchospasms elicited by acetylcholine
Experiment: Bronchodilator Activity (Konzett Assay) against acetylcholine
Assay type: in vivo, guinea pigs
Settings: Cavia porcellus; three logarithmic cumulative intravenous doses
Method in brief: (§1)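 Guinea pigs given intravenous spasmogen (5-hydroxytryptamine, histamine or acetylcholine) per Konzett procedure. ED50 derived from three logarithmic cumulative intravenous doses of test compound.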

| Compound | ED50 |
| --- | --- |
| CCC/C=C/[C@H]1CCC(=O)[C@@H]1CCCCCCC(=O)O (relative stereo) [9-oxo-18,19,20-trinor-13-trans-prostenoic acid] | 6.42 mg/kg |
| CCCCC/C=C/[C@H]1CCC(=O)[C@@H]1CCCCCCC(=O)O (relative stereo) [9-oxo-20-nor-13-trans-prostenoic acid] | 1.17 mg/kg |
| O=C(O)CCCCCC[C@@H]1C(=O)CC[C@H]1/C=C/CCCCl (relative stereo) [20-chloro-9-oxo-17,18,19-trinor-13-trans-prostenoic acid] | 3.87 mg/kg |
| CCCCCCC/C=C/[C@@H]1CCC(=O)[C@H]1CCCCCCC(=O)O (relative stereo) [20-methyl-9-oxo-13-trans-prostenoic acid] | 2.44 mg/kg |
| CCCCCC/C=C/[C@@H]1CCCC(=O)[C@H]1CCCCCCC(=O)O (relative stereo) [9-oxo-10a-homo-13-trans-prostenoic acid] | > 10.1 mg/kg |
| CCCCCC/C=C/[C@H]1CCC(=O)[C@@H]1CCCCCCC(=O)O (relative stereo) [9-oxo-13-trans-prostenoic acid] | 1.02 mg/kg |
| O=C(O)CCCCCC[C@H]1C(=O)CC[C@@H]1/C=C/CCCCCCCl (relative stereo) [20-chloro-9-oxo-13-trans-prostenoic acid] | 4.82 mg/kg |
| CC(C)CC/C=C/[C@@H]1CCC(=O)[C@H]1CCCCCCC(=O)O (relative stereo) [17-methyl-9-oxo-19,20-dinor-13-trans-prostenoic acid] | 4.3 mg/kg |
| CC/C=C\CC/C=C/[C@@H]1CCC(=O)[C@H]1CCCCCCC(=O)O (relative stereo) [9-oxo-13-trans-17-cis-prostadienoic acid] | 6 mg/kg |

System: bronchospasms elicited by histamine
Experiment: Bronchodilator Activity (Konzett Assay) against histamine
Assay type: in vivo, guinea pigs
Settings: Cavia porcellus; three logarithmic cumulative intravenous doses
Method in brief: as §1

| Compound | ED50 |
| --- | --- |
| CCC/C=C/[C@H]1CCC(=O)[C@@H]1CCCCCCC(=O)O (relative stereo) [9-oxo-18,19,20-trinor-13-trans-prostenoic acid] | 0.837 mg/kg |
| CCCCC/C=C/[C@H]1CCC(=O)[C@@H]1CCCCCCC(=O)O (relative stereo) [9-oxo-20-nor-13-trans-prostenoic acid] | 0.126 mg/kg |
| O=C(O)CCCCCC[C@@H]1C(=O)CC[C@H]1/C=C/CCCCl (relative stereo) [20-chloro-9-oxo-17,18,19-trinor-13-trans-prostenoic acid] | 0.928 mg/kg |
| CCCCCCC/C=C/[C@@H]1CCC(=O)[C@H]1CCCCCCC(=O)O (relative stereo) [20-methyl-9-oxo-13-trans-prostenoic acid] | 0.126 mg/kg |
| CCCCCC/C=C/[C@@H]1CCCC(=O)[C@H]1CCCCCCC(=O)O (relative stereo) [9-oxo-10a-homo-13-trans-prostenoic acid] | 10.1 mg/kg |
| CCCCCC/C=C/[C@H]1CCC(=O)[C@@H]1CCCCCCC(=O)O (relative stereo) [9-oxo-13-trans-prostenoic acid] | 0.232 mg/kg |
| O=C(O)CCCCCC[C@H]1C(=O)CC[C@@H]1/C=C/CCCCCCCl (relative stereo) [20-chloro-9-oxo-13-trans-prostenoic acid] | 1.22 mg/kg |
| CC(C)CC/C=C/[C@@H]1CCC(=O)[C@H]1CCCCCCC(=O)O (relative stereo) [17-methyl-9-oxo-19,20-dinor-13-trans-prostenoic acid] | 1.07 mg/kg |
| CC/C=C\CC/C=C/[C@@H]1CCC(=O)[C@H]1CCCCCCC(=O)O (relative stereo) [9-oxo-13-trans-17-cis-prostadienoic acid] | 0.65 mg/kg |
